Active and inactive are the calls of the source. The rule behind the calls is not given here.
Experiments:
[1] = tested on: HT-29; assay: Growth inhibition of human HT-29 cells by sulforhodamine B assay; assay type: functional; settings: for CC50: read-out: LC50 (the source's name)
[2] = tested on: MDA-MB-231; assay: Growth inhibition of human MDA-MB-231 cells by sulforhodamine B assay; assay type: functional
[3] = tested on: A549; assay: Growth inhibition of human A549 cells by sulforhodamine B assay; assay type: functional
[4] = tested on: A549; assay: Growth inhibition of human A549 cells up to 25 uM by sulforhodamine B assay; assay type: functional, cell-based
[5] = tested on: MDA-MB-231; assay: Growth inhibition of human MDA-MB-231 cells up to 25 uM by sulforhodamine B assay; assay type: functional, cell-based
[6] = tested on: HT-29; assay: Growth inhibition of human HT-29 cells up to 25 uM by sulforhodamine B assay; assay type: functional, cell-based

Row | Structure (SMILES) | GI50 [1] [µM] | TGI [1] [µM] | CC50 [1] [µM] | GI50 [2] [µM] | GI50 [3] [µM] | TGI [3] [µM] | LC50 (50% lethal concentration) [2] [µM] | TGI [2] [µM] | Activity [4] | Activity [5] | Activity [6] | CC50 ([3]; read-out: LC50 (the source's name)) [µM]
1 | CC(=O)O[C@@H]1C[C@@H](C2(C)CO2)CC2=C(C=O)C=C(O2)[C@H]2O[C@]2(C)C[C@@H]2OC(=O)[C@]13O[C@@H]23 (stereo not given in full) | 4.6 | 6.2 | 9.2 | 5.8 | 6 | 9.7 | – | – | – | – | – | –
2 | C=C(COC(C)=O)[C@H]1CC2=C(C=O)C=C(O2)[C@H]2O[C@]2(C)C[C@@H]2OC(=O)[C@]3(O[C@@H]23)[C@H](OC(C)=O)C1 | – | – | – | 14.5 | 17.9 | – | – | – | – | – | – | –
3 | C=C(C)[C@H]1CC2=C(C=O)C=C(O2)[C@H](O)[C@@](C)(O)C[C@@H]2OC(=O)[C@]3(O[C@@H]23)[C@H](OC(C)=O)C1 [7-EPI-LOPHODIOL A] | 2.8 | 4.8 | – | 3.2 | 3.9 | – | 8.5 | 4.6 | – | – | – | –
4 | C=C(C)[C@H]1CC2=C(C=O)C=C(O2)[C@H]2O[C@@]2(C)C[C@@H]2OC(=O)[C@]3(O[C@@H]23)[C@H](OC(C)=O)C1 | 5 | 6 | 8.4 | 4.8 | 5.3 | 8.4 | – | 6.2 | – | – | – | –
5 | C=C(C)[C@@H]1CC2=C(C=O)C=C(O2)[C@@H]2O[C@@]2(C)C[C@H]2OC(=O)[C@@]3(O[C@H]23)[C@@H](OC(C)=O)C1 | – | – | – | – | – | – | – | – | inactive | inactive | inactive | –
6 | C=C(C)[C@H]1CC2=C(C=O)C=C(O2)[C@H](O)[C@](C)(O)C[C@@H]2OC(=O)[C@]3(O[C@@H]23)[C@H](OC(C)=O)C1 [LOPHODIOL B] | 14.7 | – | – | – | – | – | – | – | – | – | – | –
7 | C=C(C)[C@@H]1CCC2=C[C@H](C[C@@]3(C)O[C@@H]3C(=O)/C=C(\C)C(=O)C1)OC2=O [ISOEPOXYLOPHODIONE] | 4.1 | 4.4 | 4.9 | 2.7 | 2.9 | 5.5 | 4.1 | 3.2 | – | – | – | –
8 | C=C(C)[C@H]1CC2=C(C=O)C=C(O2)[C@@H](O)[C@@](C)(O)C[C@@H]2OC(=O)[C@]3(O[C@@H]23)[C@H](OC(C)=O)C1 | – | – | – | – | – | – | – | – | inactive | inactive | inactive | –
9 | C=C(C)[C@@H]1CC[C@]2(C)O[C@H]2CC[C@H](C)/C=C/C=C(/C)C(=O)C1 | – | – | – | – | – | – | – | – | inactive | inactive | inactive | –
10 | CC(=O)OCC1([C@H]2CC3=C(C=O)C=C(O3)[C@H]3O[C@]3(C)C[C@@H]3OC(=O)[C@]4(O[C@@H]34)[C@H](OC(C)=O)C2)CO1 (stereo not given in full) | 8.2 | – | – | 5.1 | 5.1 | 6.9 | – | – | – | – | – | –
11 | C=C(C)[C@H]1CC2=C(C=O)C=C(O2)[C@H](OC(C)=O)[C@@](C)(OC(C)=O)C[C@@H]2OC(=O)[C@]3(O[C@@H]23)[C@H](OC(C)=O)C1 [7-EPI-7,8-DI-O-ACETYLLOPHODIOL A] | 6.2 | 6.6 | 6.9 | 3.7 | 3.3 | 3.5 | – | – | – | – | – | 3.9
